US11913031B2, “Method to reproduce circadian rhythms on a microfluidic chip” (Yissum Research Development Company of the Hebrew …, priority 2017, dated 2024)

Legend:
HepG2/C3A cells = format: cell-based
Text: FIGS. 11A-E—FIG. 11A—System schematic. FIG. 11B—Oxygen-quenched decay causes phase shift between the intensity-modulated excitation and emission light. Two-superimposed frequencies were used to screen out background interference. FIG. 11C—Fluorescence image of HepG2/C3A cells and sensor particles after immobilization in a collagen matrix.
Real-time focus independent measurement of oxygen uptake in microfluidic bioreactor: Oxygen uptake is a critical measurement of mitochondrial function and metabolic activity^35, 36. However, electrochemical electrodes require frequent re-calibration, while optical sensors are affected by small changes in focus, cell migration and stage movement, making them unreliable for real time measurements of oxygen uptake. Therefore, the present inventor designed an optical system in which organoids are embedded with nanoprobes containing RuP dye and excited at 532 nm (FIGS. 11A-E). Oxygen is a quencher of RuP phosphorescence, leading to a decrease in decay time. Importantly, decay time is not sensitive to changes in probe concentration or excitation intensity (i.e. cell migration, mechanical movement). To measure in real-time, the present inventor used a novel two-frequency sinusoidal intensity-modulated light, allowing us to filter background interference while measuring phase shift in the emitted light.

HeLa cells = assay: Acetaminophen loss of mitochondrial respiration repeated in HeLa cells; format: cell-based
liver = conditions: Table 4 compound list, toxicological end-point; cited from earlier work
E6/E7low 653 hepatocytes = assay: Circadian gene expression (RNA sequencing, JTK_CYCLE) after dexamethasone entrainment, line 653; format: cell-based, human; conditions: 100 μM (day medium), 24±4 hours period, adjusted p-values less than 0.005
Description: (§1) E6/E7^low Upcyte™ hepatocytes line 422, from a donor, and line 653, from an old donor, were seeded in OSM-free differentiation media as previously described (Levy et al. Nature Biotechnology 2015). Following 5 days of differentiation, cells were synchronized in corticosteroid-free culture medium for 24 hours, followed by high 100 μM Dexamethasone dose (day medium), entraining a circadian cycle. Triplicate cell-lysate and media samples were collected every 4 hours in the following 2 days. RNA was extracted from lysate samples, using NucleoSpin® RNA (Qiagen, Valencia, Calif.) according to manufacturer's direction. RNA were further reverse-transcribed to increase stability of the molecules and tagmented with in-house produced primers containing unique-per-molecule tags along with unique-per-sample tag, using an in-house developed TN5 enzyme. […] Library construction was conducted using Illumina TruSeq RNA Library Prep V2 Kit (Illumina, San Diego, Calif.) according to manufacturer's protocol and sequenced on Illumina NextSeq500 with single-end, 86 bp reads using the High Output V2 Kit. Sequencing reads were filtered to unique reads only and mapped to the UCSC human transcriptome (genome build hg38) using Bowtie 2. Expression levels of all genes were quantified using bedtools. […]

E6/E7low 422 hepatocytes = assay: Circadian gene expression (RNA sequencing, JTK_CYCLE) after dexamethasone entrainment, line 422; format: cell-based, human; conditions: 100 μM (day medium), 24±4 hours period, adjusted p-values less than 0.005
Description: as §1

E6/E7 hepatocytes = assay: Conditional proliferation and EMT of E6/E7 human hepatocytes
human hepatocytes = assay: Lipid accumulation in human hepatocytes; format: cell-based
Description: The present inventor uses IR-spectroscopy to track this metabolic signature in real time. Wild type and CRY1/2 knockout hepatocytes are perfused with (1) all hormones and factors (FIGS. 17A-B), or with time-average concentrations of (2) melatonin, (3) cortisol, (4) T3, (5) growth hormone, and (6) average temperature. Signature is analysed by IR-spectroscopy every 30 min for 24 hours. IR-spectra is critically compared to intracellular metabolites quantified by LC-MS/MS, as well as specific quantification of triglycerides and bile acids using commercially available kits (FIGS. 16A-F). […] Mechanism is evaluated by systematically perturbing regulators whose activity changed prior to steatosis.

For `CC(=O)Nc1ccc(O)cc1` [Acetaminophen], the “effect on oxygen uptake over time” value (HepG2/C3A cells) was “immediate, reversible, dose-dependent loss of oxygen uptake followed by a slow, irreversible, dose-independent death”, the “time at which immediate dose-dependent loss of oxygen uptake concludes” value (HepG2/C3A cells; human) was 60 min and the “time to total cell death (slow dose-independent loss of oxygen uptake)” value (HepG2/C3A cells; human) was 3 to 5 days. For the same molecule, the “transient loss of mitochondrial respiration in cells that lack CYP2E1 and 3A4” value (HeLa cells) was “repeated in HeLa cells” and the Toxicity (liver) was “Apoptosis”.

In the case of `CC(=O)Oc1ccccc1C(=O)O` [Aspirin], the Toxicity (liver) is listed as “Steatosis”.

For `CN(C)CCCN1c2ccccc2Sc2ccc(Cl)cc21` [Chlorpromazine], the Toxicity (liver) is given as “Cholestasis”.

In the case of `C[C@@H]1C[C@H]2[C@@H]3CCC4=CC(=O)C=C[C@]4(C)[C@@]3(F)[C@@H](O)C[C@]2(C)[C@@]1(O)C(=O)CO` [Dexamethasone, 9α-fluoro-11β,17α,21-trihydroxy-16α-methylpregna-1,4-diene-3,20-dione], the “genes with circadian expression pattern” value (E6/E7low 653 hepatocytes) is reported as 41 genes and the “genes with circadian expression pattern” value (E6/E7low 422 hepatocytes) is reported as 267 genes.

For `Cc1c(C)c2c(c(C)c1O)CCC(C)(COc1ccc(CC3SC(=O)NC3=O)cc1)O2` (centres unmarked) [Troglitazone], the Toxicity (liver) is listed as “Cholestasis”.

In the case of `N#CC(=C(/N)Sc1ccccc1N)/C(C#N)=C(\N)Sc1ccccc1N` [U0126], the “Epithelial-to-mesenchymal transition (EMT)” value (E6/E7 hepatocytes) is reported as “blocked” and the “epithelial morphology and cell polarization” value (E6/E7 hepatocytes) is reported as “stabilizing epithelial morphology and cell polarization”.

With `COc1ccc2[nH]cc(CCNC(C)=O)c2c1` [melatonin, Melatonin] the lipid accumulation (human hepatocytes) was “induce lipid accumulation”.

B1: Oncostatin m (protein, UniProt P13725 26-221, looked up)
Oncostatin-M: AAIGSCSKEYRVLLGQLQKQTDLMQDTSRLLDPYIRIQGLDVPKLREHCRERPGAFPSEETLRGLGRRGFLQTLNATLGCVLHRLADLEQRLPKAQDLERSGLNIEDLEKLQMARPNILGLRNNIYCMAQLLDNSDTAEPTKAGRGASQPPTPTPASDAFQRKLEGCRFLHGYHRFMHSVGRVFSKWGESPNRSRR
In the case of B1, the “doubling time of Jak-STAT3 dependent proliferation” value (E6/E7 hepatocytes; OSM stimulation) is reported as 40 h.
